According to the kinase profiling compilation of Christmann-Franck et al. (2016):
Blank lines part the entries; values can stand above or below the molecule they belong to.

Columns and labels:
[1] = molecular target: TAOK1 (human) (UniProt Q7L7X3); assay: KINOMEscan competition binding; details: compound 10.0 µM
[2] = molecular target: PTK2B (human) (UniProt Q14289); assay: KINOMEscan competition binding; details: compound 10.0 µM
[3] = molecular target: CSF1R (human) (UniProt P07333); assay: KINOMEscan competition binding; details: compound 10.0 µM
[4] = molecular target: RPS6KA6 KD2 (human) (UniProt Q9UK32); assay: KINOMEscan competition binding; details: compound 10.0 µM
[5] = molecular target: ROS1 (human) (UniProt P08922); assay: KINOMEscan competition binding; details: compound 10.0 µM
[6] = tested on: ABL1 (human), P00519 [F317I]; assay: KINOMEscan competition binding; details: compound 10.0 µM
[7] = molecular target: RPS6KA2 KD2 (human) (UniProt Q15349); assay: KINOMEscan competition binding; details: compound 10.0 µM
[8] = molecular target: DCLK1 (human) (UniProt O15075); assay: KINOMEscan competition binding; details: compound 10.0 µM
[9] = molecular target: TNK2 (human) (UniProt Q07912); assay: KINOMEscan competition binding; details: compound 10.0 µM
[10] = molecular target: DCLK2 (human) (UniProt Q8N568); assay: KINOMEscan competition binding; details: compound 10.0 µM
[11] = molecular target: ULK2 (human) (UniProt Q8IYT8); assay: KINOMEscan competition binding; details: compound 10.0 µM
[12] = molecular target: PRKD1 (human) (UniProt Q15139); assay: KINOMEscan competition binding; details: compound 10.0 µM
[13] = molecular target: GAK (human) (UniProt O14976); assay: KINOMEscan competition binding; details: compound 10.0 µM
[14] = molecular target: TNK1 (human) (UniProt Q13470); assay: KINOMEscan competition binding; details: compound 10.0 µM
[15] = molecular target: TAOK3 (human) (UniProt Q9H2K8); assay: KINOMEscan competition binding; details: compound 10.0 µM
[16] = molecular target: FGFR4 (human) (UniProt P22455); assay: KINOMEscan competition binding; details: compound 10.0 µM
[17] = molecular target: PTK2 (human) (UniProt Q05397); assay: KINOMEscan competition binding; details: compound 10.0 µM
[18] = molecular target: TTK (human) (UniProt P33981); assay: KINOMEscan competition binding; details: compound 10.0 µM
[19] = molecular target: PIK3CG (human) (UniProt P48736); assay: KINOMEscan competition binding; details: compound 10.0 µM
[20] = molecular target: CAMKK2 (human) (UniProt Q96RR4); assay: KINOMEscan competition binding; details: compound 10.0 µM
[21] = molecular target: AURKC (human) (UniProt Q9UQB9); assay: KINOMEscan competition binding; details: compound 10.0 µM
[22] = molecular target: RPS6KA1 KD2 (human) (UniProt Q15418); assay: KINOMEscan competition binding; details: compound 10.0 µM
[23] = molecular target: NUAK1 (human) (UniProt O60285); assay: KINOMEscan competition binding; details: compound 10.0 µM
[24] = molecular target: ALK (human) (UniProt Q9UM73); assay: KINOMEscan competition binding; details: compound 10.0 µM
[25] = molecular target: PLK4 (human) (UniProt O00444); assay: KINOMEscan competition binding; details: compound 10.0 µM
[26] = molecular target: MAPK7 (human) (UniProt Q13164); assay: KINOMEscan competition binding; details: compound 10.0 µM
[27] = tested on: ABL1 (human), P00519 [F317L]; assay: KINOMEscan competition binding; details: compound 10.0 µM
[28] = molecular target: ULK1 (human) (UniProt O75385); assay: KINOMEscan competition binding; details: compound 10.0 µM
[29] = molecular target: CAMK2D (human) (UniProt Q13557); assay: KINOMEscan competition binding; details: compound 10.0 µM
[30] = molecular target: MYLK (human) (UniProt Q15746); assay: KINOMEscan competition binding; details: compound 10.0 µM
[31] = molecular target: STK33 (human) (UniProt Q9BYT3); assay: KINOMEscan competition binding; details: compound 10.0 µM
[32] = molecular target: FRK (human) (UniProt P42685); assay: KINOMEscan competition binding; details: compound 10.0 µM
[33] = molecular target: MKNK2 (human) (UniProt Q9HBH9); assay: KINOMEscan competition binding; details: compound 10.0 µM
[34] = molecular target: AURKA (human) (UniProt O14965); assay: KINOMEscan competition binding; details: compound 10.0 µM
[35] = molecular target: FER (human) (UniProt P16591); assay: KINOMEscan competition binding; details: compound 10.0 µM
[36] = molecular target: PLK1 (human) (UniProt P53350); assay: KINOMEscan competition binding; details: compound 10.0 µM
[37] = molecular target: PTK6 (human) (UniProt Q13882); assay: KINOMEscan competition binding; details: compound 10.0 µM
[38] = molecular target: DYRK1B (human) (UniProt Q9Y463); assay: KINOMEscan competition binding; details: compound 10.0 µM
[39] = molecular target: GSK3A (human) (UniProt P49840); assay: KINOMEscan competition binding; details: compound 10.0 µM
[40] = molecular target: MAPK12 (human) (UniProt P53778); assay: KINOMEscan competition binding; details: compound 10.0 µM
[41] = molecular target: MINK1 (human) (UniProt Q8N4C8); assay: KINOMEscan competition binding; details: compound 10.0 µM
[42] = molecular target: PIM1 (human) (UniProt P11309); assay: KINOMEscan competition binding; details: compound 10.0 µM
[43] = molecular target: RIOK1 (human) (UniProt Q9BRS2); assay: KINOMEscan competition binding; details: compound 10.0 µM
[44] = molecular target: TYK2 JH2 pseudokinase (human) (UniProt P29597); assay: KINOMEscan competition binding; details: compound 10.0 µM
[45] = molecular target: PIM3 (human) (UniProt Q86V86); assay: KINOMEscan competition binding; details: compound 10.0 µM
[46] = molecular target: CDK16 (human) (UniProt Q00536); assay: KINOMEscan competition binding; details: compound 10.0 µM
[47] = molecular target: ACVR2A (human) (UniProt P27037); assay: KINOMEscan competition binding; details: compound 10.0 µM
[48] = molecular target: STK17A (human) (UniProt Q9UEE5); assay: KINOMEscan competition binding; details: compound 10.0 µM
[49] = molecular target: DAPK3 (human) (UniProt O43293); assay: KINOMEscan competition binding; details: compound 10.0 µM
[50] = molecular target: CSNK2A2 (human) (UniProt P19784); assay: KINOMEscan competition binding; details: compound 10.0 µM
[51] = molecular target: MYLK4 (human) (UniProt Q86YV6); assay: KINOMEscan competition binding; details: compound 10.0 µM
[52] = molecular target: HIPK1 (human) (UniProt Q86Z02); assay: KINOMEscan competition binding; details: compound 10.0 µM
[53] = molecular target: MAP2K3 (human) (UniProt P46734); assay: KINOMEscan competition binding; details: compound 10.0 µM
[54] = molecular target: STK17B (human) (UniProt O94768); assay: KINOMEscan competition binding; details: compound 10.0 µM
[55] = molecular target: ACVR2B (human) (UniProt Q13705); assay: KINOMEscan competition binding; details: compound 10.0 µM
[56] = molecular target: TGFBR2 (human) (UniProt P37173); assay: KINOMEscan competition binding; details: compound 10.0 µM
[57] = molecular target: AAK1 (human) (UniProt Q2M2I8); assay: KINOMEscan competition binding; details: compound 10.0 µM
[58] = molecular target: DAPK1 (human) (UniProt P53355); assay: KINOMEscan competition binding; details: compound 10.0 µM
[59] = molecular target: MAPK15 (human) (UniProt Q8TD08); assay: KINOMEscan competition binding; details: compound 10.0 µM
[60] = molecular target: DAPK2 (human) (UniProt Q9UIK4); assay: KINOMEscan competition binding; details: compound 10.0 µM
[61] = molecular target: CDK7 (human) (UniProt P50613); assay: KINOMEscan competition binding; details: compound 10.0 µM
[62] = molecular target: PIM2 (human) (UniProt Q9P1W9); assay: KINOMEscan competition binding; details: compound 10.0 µM
[63] = molecular target: RPS6KA4 KD2 (human) (UniProt O75676); assay: KINOMEscan competition binding; details: compound 10.0 µM
[64] = molecular target: PIM1 (human) (UniProt P11309); assay: SelectScreen, TR FRET
[65] = molecular target: PIM2 (human) (UniProt Q9P1W9); assay: SelectScreen, TR FRET
[66] = molecular target: ZAP70 (human) (UniProt P43403); assay: KINOMEscan competition binding; details: compound 10.0 µM
[67] = molecular target: CSNK2A1 (human) (UniProt P68400); assay: KINOMEscan competition binding; details: compound 10.0 µM
[68] = tested on: EIF2AK4 KD2 (human), Q9P2K8 [S808G]; assay: KINOMEscan competition binding; details: compound 10.0 µM
[69] = molecular target: CLK4 (human) (UniProt Q9HAZ1); assay: KINOMEscan competition binding; details: compound 10.0 µM

Sequence of PIM1 (human) (P11309 whole entry, looked up): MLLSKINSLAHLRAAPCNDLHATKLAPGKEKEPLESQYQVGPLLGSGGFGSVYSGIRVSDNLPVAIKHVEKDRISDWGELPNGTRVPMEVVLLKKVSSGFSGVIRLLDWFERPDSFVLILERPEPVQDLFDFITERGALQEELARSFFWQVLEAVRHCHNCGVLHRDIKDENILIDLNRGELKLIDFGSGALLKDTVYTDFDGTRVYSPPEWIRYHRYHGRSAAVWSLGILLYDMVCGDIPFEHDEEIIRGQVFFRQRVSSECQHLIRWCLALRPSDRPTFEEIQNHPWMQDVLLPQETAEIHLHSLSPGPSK
Sequence of PIK3CG (human) (P48736 whole entry, looked up): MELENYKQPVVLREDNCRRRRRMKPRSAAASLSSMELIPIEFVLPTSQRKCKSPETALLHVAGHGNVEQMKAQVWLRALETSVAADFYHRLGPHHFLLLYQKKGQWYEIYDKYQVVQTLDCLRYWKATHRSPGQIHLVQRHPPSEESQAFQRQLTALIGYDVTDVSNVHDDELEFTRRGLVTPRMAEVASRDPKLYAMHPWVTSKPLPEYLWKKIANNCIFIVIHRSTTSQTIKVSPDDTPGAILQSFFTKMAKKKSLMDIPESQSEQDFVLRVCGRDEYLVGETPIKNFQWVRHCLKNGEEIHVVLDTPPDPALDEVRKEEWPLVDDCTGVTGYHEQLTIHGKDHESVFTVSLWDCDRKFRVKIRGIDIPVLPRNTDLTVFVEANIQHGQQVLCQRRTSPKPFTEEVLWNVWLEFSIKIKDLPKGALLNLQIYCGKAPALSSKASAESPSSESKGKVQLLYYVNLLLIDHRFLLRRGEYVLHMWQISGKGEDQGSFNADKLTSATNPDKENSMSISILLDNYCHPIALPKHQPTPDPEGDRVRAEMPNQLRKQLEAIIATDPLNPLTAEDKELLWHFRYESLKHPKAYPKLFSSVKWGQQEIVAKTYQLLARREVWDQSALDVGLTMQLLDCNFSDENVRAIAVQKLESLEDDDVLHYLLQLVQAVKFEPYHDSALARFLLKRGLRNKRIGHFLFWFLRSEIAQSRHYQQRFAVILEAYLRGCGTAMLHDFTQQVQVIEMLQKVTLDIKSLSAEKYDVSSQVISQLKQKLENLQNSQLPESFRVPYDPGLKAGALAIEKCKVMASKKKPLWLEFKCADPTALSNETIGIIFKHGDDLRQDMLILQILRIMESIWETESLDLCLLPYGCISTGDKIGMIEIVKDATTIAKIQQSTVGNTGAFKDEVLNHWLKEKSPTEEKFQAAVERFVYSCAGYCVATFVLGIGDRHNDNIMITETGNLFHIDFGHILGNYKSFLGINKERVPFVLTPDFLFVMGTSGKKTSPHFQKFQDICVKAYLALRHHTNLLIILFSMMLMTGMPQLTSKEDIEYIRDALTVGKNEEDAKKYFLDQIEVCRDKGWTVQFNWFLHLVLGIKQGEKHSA
Sequence of PLK4 (human) (O00444 whole entry, looked up): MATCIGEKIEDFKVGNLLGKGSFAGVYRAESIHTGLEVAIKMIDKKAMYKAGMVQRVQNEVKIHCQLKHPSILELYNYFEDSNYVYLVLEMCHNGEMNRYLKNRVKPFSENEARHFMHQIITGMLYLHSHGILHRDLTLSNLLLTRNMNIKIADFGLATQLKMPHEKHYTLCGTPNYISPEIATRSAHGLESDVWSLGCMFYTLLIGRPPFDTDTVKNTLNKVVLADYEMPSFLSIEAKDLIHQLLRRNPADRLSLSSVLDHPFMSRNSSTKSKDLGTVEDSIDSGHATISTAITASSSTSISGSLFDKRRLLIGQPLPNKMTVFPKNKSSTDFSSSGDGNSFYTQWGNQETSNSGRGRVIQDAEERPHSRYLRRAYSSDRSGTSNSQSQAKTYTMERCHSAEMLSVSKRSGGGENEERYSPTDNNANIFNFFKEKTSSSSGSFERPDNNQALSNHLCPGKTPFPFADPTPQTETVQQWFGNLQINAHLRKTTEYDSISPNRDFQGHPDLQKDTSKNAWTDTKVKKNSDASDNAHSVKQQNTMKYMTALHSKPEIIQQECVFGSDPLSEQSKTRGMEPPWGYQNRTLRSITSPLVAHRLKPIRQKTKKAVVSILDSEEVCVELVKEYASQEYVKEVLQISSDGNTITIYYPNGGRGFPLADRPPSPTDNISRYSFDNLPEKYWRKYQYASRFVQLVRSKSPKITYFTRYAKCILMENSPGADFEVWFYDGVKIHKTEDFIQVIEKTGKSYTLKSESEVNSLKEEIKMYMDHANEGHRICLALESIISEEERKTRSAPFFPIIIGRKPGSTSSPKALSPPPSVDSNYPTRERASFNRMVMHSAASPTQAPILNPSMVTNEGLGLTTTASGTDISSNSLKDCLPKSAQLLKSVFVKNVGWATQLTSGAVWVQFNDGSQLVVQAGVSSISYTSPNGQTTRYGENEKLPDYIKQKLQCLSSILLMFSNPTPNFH
Sequence of PIM2 (human) (Q9P1W9 whole entry, looked up): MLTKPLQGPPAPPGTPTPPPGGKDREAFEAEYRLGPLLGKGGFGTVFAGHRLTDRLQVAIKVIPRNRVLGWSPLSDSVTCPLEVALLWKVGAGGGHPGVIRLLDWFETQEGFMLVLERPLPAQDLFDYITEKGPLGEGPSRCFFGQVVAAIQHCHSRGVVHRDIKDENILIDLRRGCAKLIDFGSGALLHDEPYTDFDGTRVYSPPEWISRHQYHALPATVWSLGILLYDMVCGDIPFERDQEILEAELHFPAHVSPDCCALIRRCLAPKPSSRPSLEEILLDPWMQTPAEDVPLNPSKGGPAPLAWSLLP
Sequence of DAPK2 (human) (Q9UIK4 whole entry, looked up): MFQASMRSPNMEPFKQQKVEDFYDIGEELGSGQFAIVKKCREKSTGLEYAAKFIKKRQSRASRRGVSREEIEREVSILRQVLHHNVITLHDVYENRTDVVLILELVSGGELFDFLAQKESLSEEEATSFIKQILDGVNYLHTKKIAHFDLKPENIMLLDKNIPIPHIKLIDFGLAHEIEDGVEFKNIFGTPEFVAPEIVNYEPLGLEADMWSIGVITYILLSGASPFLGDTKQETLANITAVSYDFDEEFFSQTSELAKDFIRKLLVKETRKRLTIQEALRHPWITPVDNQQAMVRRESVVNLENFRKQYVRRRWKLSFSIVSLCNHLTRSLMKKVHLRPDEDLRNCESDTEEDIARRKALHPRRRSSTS
Sequence of CSNK2A2 (human) (P19784 whole entry, looked up): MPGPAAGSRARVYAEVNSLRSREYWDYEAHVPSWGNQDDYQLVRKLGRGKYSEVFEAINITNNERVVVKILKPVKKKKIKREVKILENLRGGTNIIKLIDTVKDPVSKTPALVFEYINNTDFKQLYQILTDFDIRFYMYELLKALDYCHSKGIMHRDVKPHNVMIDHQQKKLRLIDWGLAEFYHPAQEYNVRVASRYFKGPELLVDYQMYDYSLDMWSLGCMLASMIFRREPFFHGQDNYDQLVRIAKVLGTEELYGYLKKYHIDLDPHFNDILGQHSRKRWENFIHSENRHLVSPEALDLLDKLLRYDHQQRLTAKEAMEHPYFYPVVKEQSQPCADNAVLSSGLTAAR
Sequence of GAK (human) (O14976 whole entry, looked up): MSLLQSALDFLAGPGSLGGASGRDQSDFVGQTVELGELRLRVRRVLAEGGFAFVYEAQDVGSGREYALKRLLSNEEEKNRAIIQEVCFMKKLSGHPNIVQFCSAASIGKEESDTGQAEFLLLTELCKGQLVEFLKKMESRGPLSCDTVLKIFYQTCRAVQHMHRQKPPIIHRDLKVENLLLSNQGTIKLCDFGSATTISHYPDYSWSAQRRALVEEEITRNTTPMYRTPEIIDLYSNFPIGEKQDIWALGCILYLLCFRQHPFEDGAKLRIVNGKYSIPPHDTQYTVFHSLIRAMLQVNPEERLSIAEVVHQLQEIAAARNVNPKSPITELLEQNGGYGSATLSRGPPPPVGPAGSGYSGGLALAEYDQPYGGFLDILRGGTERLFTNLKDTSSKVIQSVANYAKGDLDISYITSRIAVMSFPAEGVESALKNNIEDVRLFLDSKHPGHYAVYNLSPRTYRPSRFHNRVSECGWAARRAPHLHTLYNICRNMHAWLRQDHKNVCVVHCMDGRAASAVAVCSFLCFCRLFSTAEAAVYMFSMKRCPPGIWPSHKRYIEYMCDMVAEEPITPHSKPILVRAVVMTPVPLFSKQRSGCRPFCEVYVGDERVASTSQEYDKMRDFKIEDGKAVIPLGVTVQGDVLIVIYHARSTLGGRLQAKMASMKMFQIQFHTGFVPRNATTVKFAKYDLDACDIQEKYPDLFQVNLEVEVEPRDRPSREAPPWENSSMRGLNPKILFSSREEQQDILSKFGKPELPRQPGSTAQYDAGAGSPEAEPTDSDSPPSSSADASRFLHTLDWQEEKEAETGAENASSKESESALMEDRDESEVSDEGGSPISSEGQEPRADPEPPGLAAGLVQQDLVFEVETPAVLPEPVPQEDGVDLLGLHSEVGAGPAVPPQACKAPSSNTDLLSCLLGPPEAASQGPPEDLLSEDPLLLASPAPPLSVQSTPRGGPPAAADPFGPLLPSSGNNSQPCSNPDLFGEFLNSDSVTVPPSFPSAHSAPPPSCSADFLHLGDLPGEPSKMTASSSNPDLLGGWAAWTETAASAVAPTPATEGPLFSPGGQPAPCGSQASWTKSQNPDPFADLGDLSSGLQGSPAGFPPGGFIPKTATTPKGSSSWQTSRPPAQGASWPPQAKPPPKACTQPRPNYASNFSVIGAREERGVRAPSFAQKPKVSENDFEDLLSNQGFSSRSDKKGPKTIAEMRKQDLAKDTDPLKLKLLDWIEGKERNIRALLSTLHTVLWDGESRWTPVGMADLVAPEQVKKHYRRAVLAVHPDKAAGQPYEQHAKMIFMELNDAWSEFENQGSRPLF
Sequence of AURKC (human) (Q9UQB9 whole entry, looked up): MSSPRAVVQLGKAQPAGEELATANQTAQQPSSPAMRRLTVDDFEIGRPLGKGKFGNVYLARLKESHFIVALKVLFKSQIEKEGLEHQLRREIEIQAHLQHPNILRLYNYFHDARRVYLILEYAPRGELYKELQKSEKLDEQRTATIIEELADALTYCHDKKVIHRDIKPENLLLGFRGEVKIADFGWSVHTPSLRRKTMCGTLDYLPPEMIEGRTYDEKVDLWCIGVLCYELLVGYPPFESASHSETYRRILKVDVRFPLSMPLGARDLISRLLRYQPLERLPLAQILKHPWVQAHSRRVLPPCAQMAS

kinase still bound, per cent of control [1]: 6.8%
kinase still bound, per cent of control [2]: 29%
kinase still bound, per cent of control [3]: 3.2%
kinase still bound, per cent of control [4]: 14%
kinase still bound, per cent of control [5]: 5.8%
kinase still bound, per cent of control [6]: 7.4%
kinase still bound, per cent of control [7]: 27%
kinase still bound, per cent of control [8]: 0.55%
kinase still bound, per cent of control [9]: 1.6%
kinase still bound, per cent of control [10]: 0.4%
kinase still bound, per cent of control [11]: 8.4%
kinase still bound, per cent of control [12]: 26%
kinase still bound, per cent of control [13]: 8.5%
kinase still bound, per cent of control [14]: 0.45%
kinase still bound, per cent of control [15]: 5.4%
kinase still bound, per cent of control [16]: 6%
kinase still bound, per cent of control [17]: 7.9%
kinase still bound, per cent of control [18]: 13%
kinase still bound, per cent of control [19]: 9.3%
kinase still bound, per cent of control [20]: 15%
kinase still bound, per cent of control [21]: 15%
kinase still bound, per cent of control [22]: 22%
kinase still bound, per cent of control [23]: 24%
kinase still bound, per cent of control [24]: 24%
kinase still bound, per cent of control [25]: 5.9%
kinase still bound, per cent of control [26]: 0%
kinase still bound, per cent of control [27]: 23%
kinase still bound, per cent of control [28]: 22%
kinase still bound, per cent of control [29]: 27%
kinase still bound, per cent of control [30]: 22%
kinase still bound, per cent of control [31]: 19%
kinase still bound, per cent of control [32]: 11%
kinase still bound, per cent of control [33]: 0%
kinase still bound, per cent of control [34]: 26%
kinase still bound, per cent of control [35]: 32%
kinase still bound, per cent of control [36]: 5.5%
kinase still bound, per cent of control [37]: 21%
SMILES: COc1cc(N2CCC(O)CC2)ccc1Nc1ncc2c(n1)N(C)c1ccccc1C(=O)N2C

kinase still bound, per cent of control [38]: 24%
kinase still bound, per cent of control [39]: 10%
kinase still bound, per cent of control [1]: 3%
kinase still bound, per cent of control [40]: 12%
kinase still bound, per cent of control [41]: 30%
kinase still bound, per cent of control [42]: 2.9%
kinase still bound, per cent of control [43]: 21%
kinase still bound, per cent of control [44]: 21%
kinase still bound, per cent of control [45]: 5%
kinase still bound, per cent of control [46]: 0.3%
kinase still bound, per cent of control [47]: 7.5%
kinase still bound, per cent of control [48]: 0.65%
kinase still bound, per cent of control [49]: 17%
kinase still bound, per cent of control [50]: 28%
kinase still bound, per cent of control [13]: 22%
kinase still bound, per cent of control [51]: 8.2%
kinase still bound, per cent of control [52]: 0%
kinase still bound, per cent of control [53]: 7.8%
kinase still bound, per cent of control [15]: 16%
kinase still bound, per cent of control [54]: 2.8%
kinase still bound, per cent of control [55]: 14%
kinase still bound, per cent of control [18]: 23%
kinase still bound, per cent of control [56]: 2.8%
kinase still bound, per cent of control [19]: 25%
kinase still bound, per cent of control [57]: 34%
kinase still bound, per cent of control [58]: 8.7%
kinase still bound, per cent of control [25]: 0.3%
kinase still bound, per cent of control [60]: 9%
kinase still bound, per cent of control [30]: 12%
kinase still bound, per cent of control [33]: 33%
kinase still bound, per cent of control [61]: 1.3%
kinase still bound, per cent of control [62]: 0.9%
kinase still bound, per cent of control [63]: 13%
IC50 [64]: 204 nM
IC50 [65]: 274 nM
SMILES: CS(=O)(=O)Nc1ccc(-c2ccc(/C=C3\SC(=N)NC3=O)o2)cc1
kinase still bound, per cent of control [59]: 0.65%

kinase still bound, per cent of control [39]: 28%
kinase still bound, per cent of control [66]: 29%
kinase still bound, per cent of control [40]: 27%
kinase still bound, per cent of control [42]: 3.4%
kinase still bound, per cent of control [44]: 5.1%
kinase still bound, per cent of control [45]: 5.6%
kinase still bound, per cent of control [67]: 18%
kinase still bound, per cent of control [48]: 0.4%
kinase still bound, per cent of control [50]: 31%
kinase still bound, per cent of control [52]: 5.2%
kinase still bound, per cent of control [54]: 1.6%
kinase still bound, per cent of control [56]: 14%
kinase still bound, per cent of control [19]: 28%
kinase still bound, per cent of control [25]: 22%
kinase still bound, per cent of control [60]: 34%
kinase still bound, per cent of control [68]: 29%
kinase still bound, per cent of control [61]: 29%
kinase still bound, per cent of control [62]: 0.95%
kinase still bound, per cent of control [69]: 17%
IC50 [64]: 861 nM
IC50 [65]: 762 nM
SMILES: COc1cc(C(N)=O)ccc1-c1ccc(/C=C2\SC(=N)NC2=O)o1
